These results are taken from patent publication US9862726B2, “Opioid receptor modulating oxabicyclo[2.2.2]octane morphinans” (PURDUE PHARMA L.P., priority 2013, dated 2018).

Like-named read-outs stand apart in the source and are kept apart here.

For test [1], the target named is T1, μ-opioid receptor (Homo sapiens (Human), UniProt P35372). The test can be described thus: μ-opioid receptor radioligand dose-displacement binding assay (HEK-293 cells). The procedure: Radioligand dose-displacement binding assays for μ-opioid receptors used 0.3 nM [^3H]-diprenorphine (Perkin Elmer, Shelton, Conn.), with […] membrane protein/well in a final volume of 500 μl binding buffer (10 mM MgCl2, 1 mM EDTA, 5% DMSO, 50 mM HEPES, pH 7.4). Reactions were carried out in the absence or presence of increasing concentrations of unlabeled naloxone. All reactions were conducted in 96-deep well polypropylene plates for 2 hours at room temperature. Binding reactions were terminated by rapid filtration onto 96-well Unifilter GF/C filter plates (Perkin Elmer, Shelton, Conn.), presoaked in 0.5% polyethylenimine using a 96-well tissue harvester (Perkin Elmer, Shelton, Conn.) followed by performing three filtration washes with 500 μl of ice-cold binding buffer. Filter plates were subsequently dried at 50° C. for 2-3 hours. BetaScint scintillation cocktail (Perkin Elmer, Shelton, Conn.) was added (50 μl/well), and plates were counted using a Packard Top-Count for 1 min/well. The data were analyzed using the one-site competition curve fitting functions in GraphPad PRISM™ v. 3.0 or higher (San Diego, Calif.), or an in-house function for one-site competition curve-fitting.
(§1) In TABLE 3, binding affinity of certain Compounds of the Invention to the μ- and κ-opioid receptors was determined as described above using HEK-293 cells.

The target of test [2] is recombinant human kappa opioid receptor (κ) (Homo sapiens (Human), UniProt P41145). The test can be described thus: κ-opioid receptor radioligand dose-displacement binding assay (HEK-293 cells). The procedure: Membranes from HEK-293 cells, CHO cells or U-2 OS cells expressing the recombinant human kappa opioid receptor (κ) were prepared by lysing cells in ice cold hypotonic buffer (2.5 mM MgCl2, 50 mM HEPES, pH 7.4) (10 mL/10 cm dish) followed by homogenization with a tissue grinder/Teflon pestle. Membranes from a cell line naturally expressing kappa opioid receptor can also be used. Membranes were collected by centrifugation at 30,000×g for 15 min at 4° C. and pellets were resuspended in hypotonic buffer to a final concentration of 1-3 mg/mL. Protein concentrations were determined using the BioRad protein assay reagent with bovine serum albumen as standard. Aliquots of κ receptor membranes were stored at −80° C.
Radioligand dose displacement assays used 0.4 nM [^3H]-U69,593 (GE Healthcare, Piscataway, N.J.; 40 Ci/mmole) with 15 μg membrane protein (recombinant κ opioid receptor expressed in HEK 293 cells; in-house prep) in a final volume of 200 μl binding buffer (5% DMSO, 50 mM Trizma base, pH 7.4). Non-specific binding was determined in the presence of 10 μM unlabeled naloxone or U69,593. All reactions were performed in 96-well polypropylene plates for 1 hour at a temperature of about 25° C. Binding reactions were terminated by rapid filtration onto 96-well Unifilter GF/C filter plates (Perkin Elmer, Shelton, Conn.) presoaked in 0.5% polyethylenimine (Sigma). Harvesting was performed using a 96-well tissue harvester (Perkin Elmer, Shelton, Conn.) followed by five filtration washes with 200 μl ice-cold binding buffer. Filter plates were subsequently dried at 50° C. for 1-2 hours. Fifty μl/well scintillation cocktail (Perkin Elmer, Shelton, Conn.) was added and plates were counted in a Packard Top-Count for 1 min/well.
as §1

The target in test [3] is T1, μ-opioid receptor. Description: μ-opioid receptor [35S]GTPγS functional assay (HEK-293 cells). Type of test: biochemical. The procedure: (§2) [^35S]GTPγS functional assays were conducted using freshly thawed μ-receptor membranes prepared in-house from a cell line expressing recombinant μ opioid receptor in a HEK-293, CHO or U-2 OS cell background, or purchased from a commercial source (Perkin Elmer, Shelton, Conn.; or DiscovRx, Fremont, Calif.). Assay reactions were prepared by sequentially adding the following reagents to binding buffer (100 mM NaCl, 10 mM MgCl2, 20 mM HEPES, pH 7.4) on ice (final concentrations indicated): membrane protein (0.026 mg/mL), saponin ([…]), GDP ([…]) and [^35S]GTPγS (0.20 nM; Perkin Elmer, Shelton, Conn.). The prepared membrane solution (190 μl/well) was transferred to 96-shallow well polypropylene plates containing 10 μl of 20× concentrated stock solutions of the agonist [D-Ala^2, N-methyl-Phe^4 Gly-ol^5]-enkephalin (DAMGO) prepared in dimethyl sulfoxide (DMSO). Plates were incubated for 30 min at about 25° C. with shaking. Reactions were terminated by rapid filtration onto 96-well Unifilter GF/B filter plates (Perkin Elmer, Shelton, Conn.) using a 96-well tissue harvester (Perkin Elmer, Shelton, Conn.) followed by three filtration washes with 200 μl of ice-cold wash buffer (10 mM NaH2PO4, 10 mM Na2HPO4, pH 7.4). Filter plates were subsequently dried at 50° C. for 2-3 hours. BetaScint scintillation cocktail (Perkin Elmer, Shelton, Conn.) was added (50 μl/well) and plates were counted using a Packard Top-Count for 1 min/well. Data were analyzed using the sigmoidal dose-response curve fitting functions in GraphPad PRISM v. 3.0, or an in-house function for non-linear, sigmoidal dose-response curve-fitting. [^35S]GTPγS functional assays can also be conducted using freshly thawed μ-receptor membranes prepared from a cell line expressing recombinant μ opioid receptor in a CHO-K1 cell background.
(§3) μ GTP EC50 is the concentration of a compound providing 50% of the maximal response for the compound at a μ-opioid receptor.
(§4) μ GTP Emax (%) is the maximal effect elicited by a compound relative to the effect elicited by DAMGO, a standard μ agonist.
In TABLE 4, activity response of certain Compounds of the Invention to the μ- and κ-opioid receptors was determined as described above for functional assays using HEK-293 cells.
In general terms: GTPγS is a poorly hydrolysed GTP analogue; its binding reports G protein activation.

In test [4] the target is T1, μ-opioid receptor. Description: μ-opioid receptor functional assay (U-2 OS cells). Type of test: biochemical. The procedure:
as §2, §3, §4

Test [5] concerns the target κ-opioid receptor (Homo sapiens (Human), UniProt P41145). The test can be described thus: κ-opioid receptor functional assay (U-2 OS cells). It counts as biochemical. The procedure: Functional [^35S]GTPγS binding assays were conducted as follows. κ opioid receptor membrane solution was prepared by sequentially adding final concentrations of 0.026 μg/μl κ membrane protein (in-house), 10 μg/mL saponin, 3 μM GDP and 0.20 nM [^35S]GTPγS to binding buffer (100 mM NaCl, 10 mM MgCl2, 20 mM HEPES, pH 7.4) on ice. The prepared membrane solution (190 μl/well) was transferred to 96-shallow well polypropylene plates containing 10 μl of 20× concentrated stock solutions of agonist prepared in DMSO. Plates were incubated for 30 min at a temperature of about 25° C. with shaking. Reactions were terminated by rapid filtration onto 96-well Unifilter GF/B filter plates (Perkin Elmer, Shelton, Conn.) using a 96-well tissue harvester (Packard) and followed by three filtration washes with 200 μl ice-cold binding buffer (10 mM NaH2PO4, 10 mM Na2HPO4, pH 7.4). Filter plates were subsequently dried at 50° C. for 2-3 hours. Fifty μl/well scintillation cocktail (Perkin Elmer, Shelton, Conn.) was added and plates were counted in a Packard Top-Count for 1 min/well.
κ GTP EC50 is the concentration of a compound providing 50% of the maximal response for the compound at a κ receptor.
κ GTP Emax (%) is the maximal effect elicited by a compound relative to the effect elicited by U69,593.
The following TABLE 5 provides results on the activity response of certain Compounds of the Invention at the μ- and κ-opioid receptors determined as described above using U-2 OS cells.

Setting [6] is: HEK-293 cells, relative to DAMGO.
[7] abbreviates: U-2 OS cells, relative to DAMGO.
[8] abbreviates: U-2 OS cells, relative to U69,593.

A word on the Ki: it is a measure of affinity in units of concentration, obtained from inhibition or displacement. The term EC50 denotes the midpoint of the concentration-response curve. As to “1-Chlorophenyl-3-((4bR,6S,8aS,9R)-11-(cyclopropylmethyl)-3-methoxy-5,6,7,8,9,10-hexahydro-9,4b-(epiminoethano)-8a,6-(epoxymethano)phenanthren-6-yl)urea [Compound 25]”, the Ki was determined as 0.00351 ± 0.00045 µM in test [1] and 0.00256 ± 0.00036 µM in test [2]. Besides, the EC50 in test [3] (HEK-293 cells, read-out: Opioid Receptor μ EC50) stood at 86.6 ± 11.5 nM; in test [4] (U-2 OS cells, read-out: Opioid Receptor μ EC50), 4.33 ± 0.15 nM; in test [5] (U-2 OS cells, read-out: Opioid Receptor κ EC50), 16.1 ± 0.82 nM. For the same molecule, the “Opioid Receptor μ Emax (%)” value is on record as 18.3 ± 0.88% in test [3] (setting [6]) and 99.7 ± 0.88% in test [4] (setting [7]). Also, the “Opioid Receptor κ Emax (%)” value in test [5] (setting [8]) was 121.3 ± 4.67%.

A word on the Emax: it is the size of the effect at its maximum, as opposed to the concentration needed. Take `COc1ccc2c(c1)[C@]13CCN(CC4CC4)[C@H](C2)[C@]12CC[C@@](N(C)C)(CO2)C3` [Compound 28, (4bR,6S,8aS,9R)-11-(cyclopropylmethyl)-3-methoxy-N,N-dimethyl-5,6,7,8,9,10-hexahydro-9,4b-(epiminoethano)-8a,6-(epoxymethano)phenanthren-6-amine]: the concentration giving a half-maximal response (EC50) was found to be 1920 ± 693 nM in test [3], 339 ± 31.6 nM in test [4] and 132 ± 25.7 nM in test [5]. The maximal response (Emax) in test [3] (setting [6]) was 18.8 ± 1.46%; in test [4] (setting [7]) it was 68.7 ± 0.67%; in test [5] (setting [8]) it was 107 ± 2.4%.

As for `COc1ccc2c(c1)[C@]13CCN(CC4CC4)[C@H](C2)[C@]12CC[C@@](Nc1ccc(C(C)(C)C)cc1)(CO2)C3` [Compound 29, (4bR,6S,8aS,9R)—N-(4-tert-butyl)phenyl-11-(cyclopropylmethyl)-3-methoxy-5,6,7,8,9,10-hexahydro-9,4b-(epiminoethano)-8a,6-(epoxymethano)phenanthren-6-amine], the figures for the EC50 in test [3], in test [4] and in test [5] were above 20000 nM, 2.02 ± 0.28 nM and 3.08 ± 0.32 nM, respectively. In addition, the values for the Emax in test [3] (setting [6]), in test [4] (setting [7]) and in test [5] (setting [8]) were 7.5 ± 1.55%, 43.3 ± 2.4% and 113 ± 4.41%, respectively.

Take `COc1ccc2c(c1)[C@]13CCN(CC4CC4)[C@H](C2)[C@]12CC[C@@](Nc1ccccc1)(CO2)C3` [Compound 30, (4bR,6S,8aS,9R)-11-(cyclopropylmethyl)-3-methoxy-N-phenyl-5,6,7,8,9,10-hexahydro-9,4b-(epiminoethano)-8a,6-(epoxymethano)phenanthren-6-amine]: the values for the EC50 in test [3], in test [4] and in test [5] were 83.6 ± 23.4 nM, 9.93 ± 0.87 nM and 0.14 ± 0.039 nM, respectively. Besides, the Emax in test [3] (setting [6]) turned out to be 20.3 ± 0.67%; in test [4] (setting [7]), 69 ± 2.65%; in test [5] (setting [8]), 105 ± 3.53%.

`COc1ccc2c(c1)[C@]13CCN(CC4CC4)[C@H](C2)[C@]12CC[C@@](N1CCOCC1)(CO2)C3` [Compound 31, (4bR,6S,8aS,9R)-11-(cyclopropylmethyl)-3-methoxy-6-morpholino-5,6,7,8,9,10-hexahydro-9,4b-(epiminoethano)-8a,6-(epoxymethano)phenanthrene]: the figures for the EC50 in test [3], in test [4] and in test [5] were 887 ± 278 nM, 147 ± 7.61 nM and 30 ± 7.2 nM, respectively. Moreover, the Emax in test [3] (setting [6]) came to 9 ± 1.15%; in test [4] (setting [7]), 38.7 ± 2.96%; in test [5] (setting [8]) it was 103.7 ± 0.33%.

`COc1ccc2c(c1)[C@]13CCN(CC4CC4)[C@H](C2)[C@]12CC[C@@](N1CCCC1)(CO2)C3` [Compound 32, (4bR,6S,8aS,9R)-11-(cyclopropylmethyl)-3-methoxy-6-(pyrrolidin-1-yl)-5,6,7,8,9,10-hexahydro-9,4b-(epiminoethano)-8a,6-(epoxymethano)phenanthrene]: the EC50 turned out to be 1380 ± 234 nM in test [3], 255 ± 26.6 nM in test [4] and 26.6 ± 5.92 nM in test [5]. In addition, the values for the Emax in test [3] (setting [6]), in test [4] (setting [7]) and in test [5] (setting [8]) were 20.7 ± 0.33%, 69 ± 2.89% and 104 ± 3.61%, respectively.

Take `COc1ccc2c(c1)[C@]13CCN(CC4CC4)[C@H](C2=O)[C@]12CC[C@](O)(C3)C(=O)O2` [Compound 33, (4bR,6S,8aS,9S)-11-(cyclopropylmethyl)-6-hydroxy-3-methoxy-5,6,7,8-tetrahydro-9,4b-(epiminoethano)-8a,6-(epoxymethano)phenanthrene-10,15(9H)-dione]: the values for the Ki in test [1] (bound given in μM) and in test [2] were above 20 µM and 3.35 ± 0.325 µM, respectively.

As to `COc1ccc2c(c1)[C@]13CCN(CC4CC4)[C@H]([C@@H]2O)[C@]12CC[C@](O)(C3)C(=O)O2` [Compound 34, (4bR,6S,8aS,9R,10R)-11-(cyclopropylmethyl)-6,10-dihydroxy-3-methoxy-5,6,7,8,9,10-hexahydro-9,4b-(epiminoethano)-8a,6-(epoxymethano)phenanthren-15-one], the Ki in test [1] (bound given in μM) and in test [2] (bound given in μM) was above 20 µM throughout.

For the molecule `CN1CC[C@]23C[C@@]4(N)CC[C@@]2(OC4)[C@H]1Cc1ccc(O)cc13` [Compound 35, (4bR,6S,8aS,9R)-6-amino-11-methyl-5,6,7,8,9,10-hexahydro-9,4b-(epiminoethano)-8a,6-(epoxymethano)phenanthren-3-ol], a half-maximal effect in test [3] (EC50) was put at 291 ± 23.2 nM. In test [3] (setting [6]), this molecule had an Emax of 50.3 ± 2.33%.

Turning to `CN[C@]12CC[C@@]3(OC1)[C@H]1Cc4ccc(O)cc4[C@@]3(CCN1CC1CC1)C2` [Compound 37, (4bR,6S,8aS,9R)-11-(cyclopropylmethyl)-6-(methylamino)-5,6,7,8,9,10-hexahydro-9,4b-(epiminoethano)-8a,6-(epoxymethano)phenanthren-3-ol], the midpoint of the response in test [3], the EC50, lay at 3.44 ± 0.78 nM. The molecule also showed an Emax in test [3] (setting [6]) of 19 ± 1%.
